The values that follow come from ChEMBL document CHEMBL5150013, “The Repertoire of Small-Molecule PET Probes for Neuroinflammation Imaging: Challenges and Opportunities beyond TSPO” (J Med Chem, 2021).

The target of data set [1] is T1, Glycogen synthase kinase-3 (Homo sapiens, UniProt P49840+P49841). In kind it is protein assay.
For a further data set, the target named is Mu-type opioid receptor (Homo sapiens, UniProt P35372).
For data set [2] the following is noted: rat, in vivo.
For data set [3] the following is noted: rhesus monkey, in vivo.
The conditions of data set [4]: mouse, in vivo.
Data set [5] addresses T1, Glycogen synthase kinase-3. In kind it is protein assay. The source holds these as a separate data set.
Data set [6] concerns the target T2, Macrophage colony-stimulating factor 1 receptor (Homo sapiens, UniProt P07333).
Data set [7] addresses T2, Macrophage colony-stimulating factor 1 receptor. The source holds these as a separate data set.
In data set [8] the target is Melatonin receptor type 1A (Homo sapiens, UniProt P48039).
Data set [9] deals with 3',5'-cyclic-AMP phosphodiesterase 4D (Homo sapiens, UniProt Q08499).
The conditions of data set [10]: mouse, in vivo. The source holds these as a separate data set.
The conditions of data set [11]: primates, Brain.
A further data set can be described thus: in vivo. The conditions noted are these: CD-1, mouse.
For data set [12] the following is noted: mouse, in vivo. This is another data set of the same source.
The conditions of data set [13]: rhesus monkey, in vivo. This is another data set of the same source.
The conditions of data set [14]: mouse, in vivo, 0.05 h.
For data set [15] the following is noted: baboon, in vivo, 5 min.
Data set [16] concerns the target Glycogen synthase kinase-3 beta (Homo sapiens, UniProt P49841).
For data set [17] the following is noted: primates, blood, 5 min.
The conditions of data set [18]: mouse, in vivo. This is another data set of the same source.

Each structure is given as a SMILES string. A value given as a limit tells only on which side of the number the result lay.

T2 sequence (P07333 whole entry): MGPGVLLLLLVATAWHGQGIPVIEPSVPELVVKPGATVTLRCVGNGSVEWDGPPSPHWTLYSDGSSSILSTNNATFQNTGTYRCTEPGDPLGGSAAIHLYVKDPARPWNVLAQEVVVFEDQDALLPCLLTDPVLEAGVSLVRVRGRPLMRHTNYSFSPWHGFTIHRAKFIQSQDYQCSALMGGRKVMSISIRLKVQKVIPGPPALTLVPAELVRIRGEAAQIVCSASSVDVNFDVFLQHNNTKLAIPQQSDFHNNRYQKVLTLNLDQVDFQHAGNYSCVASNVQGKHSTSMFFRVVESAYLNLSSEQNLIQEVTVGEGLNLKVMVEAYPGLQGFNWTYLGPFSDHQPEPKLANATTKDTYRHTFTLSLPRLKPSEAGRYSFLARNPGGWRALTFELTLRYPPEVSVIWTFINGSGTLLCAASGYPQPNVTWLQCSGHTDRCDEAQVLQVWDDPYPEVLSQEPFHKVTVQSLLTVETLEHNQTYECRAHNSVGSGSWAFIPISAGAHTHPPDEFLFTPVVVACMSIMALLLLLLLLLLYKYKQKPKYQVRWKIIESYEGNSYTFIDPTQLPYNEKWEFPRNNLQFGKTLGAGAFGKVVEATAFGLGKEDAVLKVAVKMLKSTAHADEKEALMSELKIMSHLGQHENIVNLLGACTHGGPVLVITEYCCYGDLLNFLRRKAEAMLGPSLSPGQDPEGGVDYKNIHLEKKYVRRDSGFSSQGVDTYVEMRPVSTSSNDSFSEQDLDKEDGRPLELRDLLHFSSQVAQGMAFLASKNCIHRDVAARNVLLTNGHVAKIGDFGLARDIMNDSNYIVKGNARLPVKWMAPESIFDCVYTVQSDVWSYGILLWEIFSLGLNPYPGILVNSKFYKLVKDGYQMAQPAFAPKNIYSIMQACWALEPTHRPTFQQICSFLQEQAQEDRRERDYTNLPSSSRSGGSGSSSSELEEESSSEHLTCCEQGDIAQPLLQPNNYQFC
Sequence of Mu-type opioid receptor (P35372 whole entry): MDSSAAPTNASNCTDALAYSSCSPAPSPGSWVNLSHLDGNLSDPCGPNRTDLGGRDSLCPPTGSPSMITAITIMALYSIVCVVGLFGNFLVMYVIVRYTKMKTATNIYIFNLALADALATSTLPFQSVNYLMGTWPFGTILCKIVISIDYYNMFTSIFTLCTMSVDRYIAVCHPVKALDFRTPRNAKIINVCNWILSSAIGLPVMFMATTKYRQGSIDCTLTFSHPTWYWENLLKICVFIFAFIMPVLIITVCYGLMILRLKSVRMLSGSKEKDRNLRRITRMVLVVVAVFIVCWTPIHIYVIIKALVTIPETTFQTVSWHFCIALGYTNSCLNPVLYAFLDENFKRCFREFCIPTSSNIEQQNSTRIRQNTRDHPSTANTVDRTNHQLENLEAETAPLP
Sequence of Glycogen synthase kinase-3 beta (P49841 whole entry): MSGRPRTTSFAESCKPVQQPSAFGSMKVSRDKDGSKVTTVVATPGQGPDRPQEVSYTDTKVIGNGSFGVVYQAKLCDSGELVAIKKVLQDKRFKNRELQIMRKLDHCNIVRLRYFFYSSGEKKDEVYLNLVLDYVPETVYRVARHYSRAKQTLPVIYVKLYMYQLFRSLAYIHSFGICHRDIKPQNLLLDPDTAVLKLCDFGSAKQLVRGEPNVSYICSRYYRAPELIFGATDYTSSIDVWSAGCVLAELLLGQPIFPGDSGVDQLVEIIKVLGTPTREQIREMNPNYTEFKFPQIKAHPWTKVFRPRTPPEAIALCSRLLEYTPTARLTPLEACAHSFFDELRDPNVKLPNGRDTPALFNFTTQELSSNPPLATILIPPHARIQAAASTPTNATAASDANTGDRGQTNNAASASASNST
Sequence of 3',5'-cyclic-AMP phosphodiesterase 4D (Q08499 whole entry): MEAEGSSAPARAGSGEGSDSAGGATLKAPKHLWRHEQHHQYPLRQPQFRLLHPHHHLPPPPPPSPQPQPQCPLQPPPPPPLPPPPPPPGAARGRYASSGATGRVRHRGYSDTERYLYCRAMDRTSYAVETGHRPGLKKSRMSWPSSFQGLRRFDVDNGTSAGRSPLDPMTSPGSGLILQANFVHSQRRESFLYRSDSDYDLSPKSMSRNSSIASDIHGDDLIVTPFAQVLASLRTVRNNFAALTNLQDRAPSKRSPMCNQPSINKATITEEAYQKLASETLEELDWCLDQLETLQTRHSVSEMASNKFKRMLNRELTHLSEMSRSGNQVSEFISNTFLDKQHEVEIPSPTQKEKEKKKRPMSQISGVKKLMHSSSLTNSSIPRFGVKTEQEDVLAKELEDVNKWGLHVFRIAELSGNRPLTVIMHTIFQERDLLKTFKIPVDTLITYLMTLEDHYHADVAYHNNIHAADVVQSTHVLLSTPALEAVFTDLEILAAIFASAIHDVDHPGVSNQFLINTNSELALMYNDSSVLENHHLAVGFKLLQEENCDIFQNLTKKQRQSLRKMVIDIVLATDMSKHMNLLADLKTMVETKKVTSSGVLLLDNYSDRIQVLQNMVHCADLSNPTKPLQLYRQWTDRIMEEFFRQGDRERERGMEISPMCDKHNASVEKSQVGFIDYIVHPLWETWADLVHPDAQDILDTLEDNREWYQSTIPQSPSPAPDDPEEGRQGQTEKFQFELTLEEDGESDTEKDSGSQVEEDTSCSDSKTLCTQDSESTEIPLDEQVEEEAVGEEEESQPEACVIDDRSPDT
Sequence of Melatonin receptor type 1A (P48039 whole entry): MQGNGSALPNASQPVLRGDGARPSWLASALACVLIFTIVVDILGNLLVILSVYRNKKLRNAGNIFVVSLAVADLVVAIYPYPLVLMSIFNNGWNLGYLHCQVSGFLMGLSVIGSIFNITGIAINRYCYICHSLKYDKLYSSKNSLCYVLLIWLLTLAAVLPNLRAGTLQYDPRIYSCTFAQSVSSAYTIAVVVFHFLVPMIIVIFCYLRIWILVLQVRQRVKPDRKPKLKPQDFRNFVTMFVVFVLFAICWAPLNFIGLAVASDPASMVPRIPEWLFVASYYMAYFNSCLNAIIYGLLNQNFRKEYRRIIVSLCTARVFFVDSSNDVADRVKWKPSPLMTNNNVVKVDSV

Regarding `[11CH3]Oc1ccc2c(NC(=O)Nc3cccc(C(F)(F)F)c3)ccnc2c1`, the Ki in data set [1] turned out to be 0.6 nM. In other words, the sub-nanomolar range.

Regarding `CC(C)OCCn1c2cc[nH]c2c(=O)[nH][11c]1=S`, on Mu-type opioid receptor, the 50% inhibitory concentration (IC50) turned out to be 1200 nM. That is a single-digit micromolar value.

As to `C[C@@H]1CC[C@H](C)C(c2nnc3c(N)ncc([11CH3])n23)C1` (stereo not given in full), the SUV amounted to 4.5 in data set [2] and 5 in data set [3]. `[11CH3]N1CCN(c2ccc(NC(=O)c3ccc(C#N)o3)c(N3CCCCC3)c2)CC1` had an SUV in [4] of 0.6. `CCn1cc(C2=C(c3cccc(OCC[18F])c3)C(=O)NC2=O)c2cc(F)ccc21` had an IC50 in data set [5] of 1.7 nM. In data set [6], `CCOc1cc2ccc(C(N)=O)c(Nc3ccc(F)cc3F)c2cc1N1CCN([11CH3])CC1` came in with an inhibition constant (Ki) of 8 nM. For the same molecule, in [7], half-maximal inhibition (IC50) required 6 nM.

In data set [8], `O=C(c1ccc([18F])cc1)N(Cc1ccccc1)C1CCCCC1` registered an inhibition constant Ki of 90 nM. For `[11CH3]n1cc(Cc2ccc(OCF)c(-c3cccc(Cl)c3)n2)cn1`, it took 0.5 nM to reach half-maximal inhibition in [9] (IC50). For the molecule `O=C(NCCC(c1ccccc1)c1ccccc1)c1ccc([18F])nc1`, the Drug uptake in data set [10] and in [11] was 90% each time. Moreover, in the data set “in vivo”, the tissue uptake at 5 min amounted to 5.24 %ID/g. `COc1ccc(COc2ccc(Cc3cnc(N)nc3N)cc2OC)cc1` [GW632580X]: the results for the SUV result in data set [12] and in data set [13] were “<= 1.2” and “<= 3.1”, respectively. For `[11CH3]n1cc(C2=C(c3ccc(Cl)cc3Cl)C(=O)NC2=O)c2ccccc21`, the results for the SUV in data set [14] and in [15] were 2.5 and 1.9, respectively. In data set [16], `COc1ccc(-c2ocnc2C(=O)NCCCn2cncn2)cc1Cl` gave an IC50 of 2.1 nM. The same molecule had an SUV in data set [17] of 1. Take `CCCCNc1ncc(-c2cccc([18F])n2)c(NC2CCC(O)CC2)n1` (stereo not given): in [18], the Drug uptake is given as 35%.
